Like-named read-outs stand apart in the source and are kept apart here.
Legend:
Assay in all cases: stopped-flow CO2 hydration
Assay type in all cases: biochemical
hCA I = biological target: T1, hCA I (Homo sapiens, UniProt P00915)
T1 construct: gene CA1
From the text: stopped-flow CO2 hydration on hCA I

hCA VA = biological target: T2, hCA VA (Homo sapiens, UniProt P35218)
T2 construct: gene CA5A
From the text: stopped-flow CO2 hydration on hCA VA

hCA XII = biological target: T3, hCA XII (Homo sapiens, UniProt O43570)
T3 construct: gene CA12
T3 sequence (O43570 25-354): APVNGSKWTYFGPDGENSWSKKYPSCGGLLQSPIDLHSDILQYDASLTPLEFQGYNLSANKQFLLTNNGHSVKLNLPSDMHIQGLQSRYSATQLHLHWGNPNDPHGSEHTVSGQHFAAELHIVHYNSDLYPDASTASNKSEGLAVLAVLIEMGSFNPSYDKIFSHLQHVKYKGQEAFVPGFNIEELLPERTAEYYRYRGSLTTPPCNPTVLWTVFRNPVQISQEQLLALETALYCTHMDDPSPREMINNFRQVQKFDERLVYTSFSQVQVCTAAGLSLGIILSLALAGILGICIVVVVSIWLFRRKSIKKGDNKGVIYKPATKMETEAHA
From the text: stopped-flow CO2 hydration on hCA XII

hCA II = biological target: T4, hCA II (Homo sapiens, UniProt P00918)
T4 construct: gene CA2
From the text: stopped-flow CO2 hydration on hCA II

T2 sequence (P35218 39-305): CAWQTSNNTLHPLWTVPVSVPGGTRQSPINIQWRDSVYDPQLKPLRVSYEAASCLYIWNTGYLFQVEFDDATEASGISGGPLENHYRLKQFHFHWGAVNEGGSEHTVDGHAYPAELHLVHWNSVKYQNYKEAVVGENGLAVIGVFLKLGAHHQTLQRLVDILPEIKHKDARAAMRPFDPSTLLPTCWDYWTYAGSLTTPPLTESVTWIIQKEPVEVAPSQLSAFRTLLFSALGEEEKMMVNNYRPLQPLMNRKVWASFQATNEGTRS
T1 sequence (P00915 2-261): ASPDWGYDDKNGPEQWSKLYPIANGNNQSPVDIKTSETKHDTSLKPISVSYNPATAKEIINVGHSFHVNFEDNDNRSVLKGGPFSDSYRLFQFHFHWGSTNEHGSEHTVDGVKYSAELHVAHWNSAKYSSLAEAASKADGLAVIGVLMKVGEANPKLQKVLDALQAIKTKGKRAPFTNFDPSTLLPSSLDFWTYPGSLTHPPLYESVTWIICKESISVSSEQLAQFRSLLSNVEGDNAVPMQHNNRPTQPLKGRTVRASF

| SMILES | Ki (hCA I) | Ki (hCA VA; CO2 […], […] HEPES pH […] Na2SO4, […] min preincubation, room temperature) | Ki (hCA XII) | Ki (hCA II) | Ki (hCA VA) |
| --- | --- | --- | --- | --- | --- |
| CC(C)C[C@@H](NC(=O)OCc1ccccc1)C(=O)NCCc1ccc(S(N)(=O)=O)cc1 [compound 1, Benzyl (R)-(4-methyl-1-oxo-1-((4-sulphamoylphenethyl)amino)pentan-2-yl)carbamate] | 49.5 nM | 58.7 nM | 27.4 nM | 8.3 nM |  |
| CSCC[C@@H](NC(=O)OCc1ccccc1)C(=O)NCCc1ccc(S(N)(=O)=O)cc1 [compound 2, Benzyl (R)-(4-(methylthio)-1-oxo-1-((4-sulphamoylphenethyl)amino)butan-2-yl)carbamate] |  |  | 53.9 nM | 1.7 nM | 63.4 nM |
| CC(C)[C@@H](NC(=O)OCc1ccccc1)C(=O)NCCc1ccc(S(N)(=O)=O)cc1 [compound 3, Benzyl (R)-(3-methyl-1-oxo-1-((4-sulphamoylphenethyl)amino)butan-2-yl)carbamate] | 51.6 nM |  | 7.2 nM |  | 60.3 nM |
| NS(=O)(=O)c1ccc(CCNC(=O)[C@@H](CSc2ccccc2)NC(=O)OCc2ccccc2)cc1 [compound 4, Benzyl (S)-(1-oxo-3-(phenylthio)-1-((4-sulphamoylphenethyl)amino)propan-2-yl)carbamate] | 352 nM |  | 8.4 nM |  | 63.3 nM |
| C[C@@H](NC(=O)OC(C)(C)C)C(=O)NCCc1ccc(S(N)(=O)=O)cc1 [compound 5, tert-Butyl (R)-(1-oxo-1-((4-sulphamoylphenethyl)amino)propan-2-yl)carbamate] | 73.5 nM |  | 45.6 nM | 6.6 nM | 68.7 nM |
| NS(=O)(=O)c1ccc(CCNC(=O)CNC(=O)OCC2c3ccccc3-c3ccccc32)cc1 [compound 6, (9H-fluoren-9-yl)methyl (2-oxo-2-((4-sulphamoylphenethyl)amino)ethyl)carbamate] | 36 nM |  | 8.2 nM | 6.4 nM | 67.9 nM |
| NS(=O)(=O)c1ccc(CCNC(=O)[C@H](Cc2ccccc2)NC(=O)OCC2c3ccccc3-c3ccccc32)cc1 [compound 7, (9H-fluoren-9-yl)methyl (S)-(1-oxo-3-phenyl-1-((4-sulphamoylphenethyl)amino)propan-2-yl)carbamate] | 697 nM |  | 38.9 nM | 76.4 nM | 3440 nM |
| NS(=O)(=O)c1ccc(CCNC(=O)[C@@H](Cc2c[nH]c3ccccc23)NC(=O)OCc2ccccc2)cc1 [compound 8, Benzyl (R)-(3-(1H-indol-3-yl)-1-oxo-1-((4-sulphamoylphenethyl)amino)propan-2-yl)carbamate] | 528 nM |  | 5.5 nM | 6.5 nM | 3010 nM |
| CSCC[C@H](NC(=O)OC(C)(C)C)C(=O)NCCc1ccc(S(N)(=O)=O)cc1 [compound 9, tert-Butyl (S)-(4-(methylthio)-1-oxo-1-((4-sulphamoylphenethyl)amino)butan-2-yl)carbamate] | 4390 nM |  | 329 nM |  | 611 nM |
| CC(C)[C@@H](NC(=O)OC(C)(C)C)C(=O)NCCc1ccc(S(N)(=O)=O)cc1 [compound 10, tert-Butyl (R)-(3-methyl-1-oxo-1-((4-sulphamoylphenethyl)amino)butan-2-yl)carbamate] | 2990 nM |  | 197 nM |  | 661 nM |
| CC[C@@H](C)[C@@H](NC(=O)OC(C)(C)C)C(=O)NCCc1ccc(S(N)(=O)=O)cc1 [compound 11, tert-Butyl ((2R,3R)-3-methyl-1-oxo-1-((4-sulphamoylphenethyl)amino)pentan-2-yl)carbamate] | 349 nM |  | 56.2 nM |  | 3870 nM |
| NS(=O)(=O)c1ccc(CCNC(=O)C[C@@H](NC(=O)OCc2ccccc2)C(=O)NCCc2ccc(S(N)(=O)=O)cc2)cc1 [compound 12, Benzyl (R)-(1,4-dioxo-1,4-bis((4-sulphamoylphenethyl)amino)butan-2-yl)carbamate] | 689 nM |  | 24.4 nM | 215 nM | 3140 nM |
| CC(C)C[C@@H](NC(=O)OCc1ccccc1)C(=O)NCc1ccc(S(N)(=O)=O)cc1 [compound 13, Benzyl (R)-(4-methyl-1-oxo-1-((4-sulphamoylbenzyl)amino)pentan-2-yl)carbamate] | 61.1 nM |  | 39.8 nM | 86.6 nM | 578 nM |
| CSCC[C@@H](NC(=O)OCc1ccccc1)C(=O)NCc1ccc(S(N)(=O)=O)cc1 [compound 14, Benzyl (R)-(4-(methylthio)-1-oxo-1-((4-sulphamoylbenzyl)amino)butan-2-yl)carbamate] | 9.3 nM |  | 74.3 nM | 8.9 nM | 384 nM |
| CC(C)[C@@H](NC(=O)OCc1ccccc1)C(=O)NCc1ccc(S(N)(=O)=O)cc1 [compound 15, Benzyl (R)-(3-methyl-1-oxo-1-((4-sulphamoylbenzyl)amino)butan-2-yl)carbamate] | 8.1 nM |  | 67.7 nM | 28.4 nM | 503 nM |
| NS(=O)(=O)c1ccc(CNC(=O)[C@@H](CSc2ccccc2)NC(=O)OCc2ccccc2)cc1 [compound 16, Benzyl (S)-(1-oxo-3-(phenylthio)-1-((4-sulphamoylbenzyl)amino)propan-2-yl)carbamate] | 764 nM |  | 37.1 nM | 3.3 nM | 3960 nM |
| CC(C)(C)OC(=O)NCC(=O)NCc1ccc(S(N)(=O)=O)cc1 [compound 17, tert-Butyl (2-oxo-2-((4-sulphamoylbenzyl)amino)ethyl)carbamate] | 3340 nM |  | 8.8 nM | 6.8 nM | 3650 nM |
| C[C@@H](NC(=O)OC(C)(C)C)C(=O)NCc1ccc(S(N)(=O)=O)cc1 [compound 18, tert-Butyl (R)-(1-oxo-1-((4-sulphamoylbenzyl)amino)propan-2-yl)carbamate] | 3890 nM |  | 20.6 nM | 6.8 nM | 5360 nM |
| CC(C)(C)OC(=O)N[C@H](Cc1ccccc1)C(=O)NCc1ccc(S(N)(=O)=O)cc1 [compound 19, tert-Butyl (R)-(1-oxo-3-phenyl-1-((4-sulphamoylbenzyl)amino)propan-2-yl)carbamate] | 3780 nM |  | 6.9 nM | 61.4 nM | 734 nM |
| NS(=O)(=O)c1ccc(CNC(=O)[C@H](Cc2ccccc2)NC(=O)OCC2c3ccccc3-c3ccccc32)cc1 [compound 20, (9H-fluoren-9-yl)methyl (S)-(1-oxo-3-phenyl-1-((4-sulphamoylbenzyl)amino)propan-2-yl)carbamate] | 5170 nM |  | 26.7 nM | 693 nM | 6830 nM |
| CSCC[C@@H](NC(=O)OC(C)(C)C)C(=O)NCc1ccc(S(N)(=O)=O)cc1 [compound 21, tert-Butyl (R)-(4-(methylthio)-1-oxo-1-((4-sulphamoylbenzyl)amino)butan-2-yl)carbamate] | 5360 nM |  | 3.9 nM | 316 nM | 4990 nM |
| CC(C)[C@@H](NC(=O)OC(C)(C)C)C(=O)NCc1ccc(S(N)(=O)=O)cc1 [compound 22, tert-Butyl (R)-(3-methyl-1-oxo-1-((4-sulphamoylbenzyl)amino)butan-2-yl)carbamate] | 753 nM |  | 90.1 nM | 168 nM | 4780 nM |
| NS(=O)(=O)c1ccc(CNC(=O)[C@@H](Cc2c[nH]c3ccccc23)NC(=O)OCc2ccccc2)cc1 [compound 23, Benzyl (R)-(3-(1H-indol-3-yl)-1-oxo-1-((4-sulphamoylbenzyl)amino)propan-2-yl)carbamate] | 305 nM |  | 78.1 nM | 0.9 nM | 401 nM |
| CC[C@@H](C)[C@@H](NC(=O)OC(C)(C)C)C(=O)NCc1ccc(S(N)(=O)=O)cc1 [compound 24, tert-Butyl ((2R,3R)-3-methyl-1-oxo-1-((4-sulphamoylbenzyl)amino)pentan-2-yl)carbamate] | 178 nM |  | 50.3 nM | 0.8 nM | 4580 nM |

Source: PMC6968503, “Synthesis and human carbonic anhydrase I, II, VA, and XII inhibition with novel amino acid–sulphonamide conjugates” (Journal of Enzyme Inhibition and Medicinal Chemistry, 2020)
